Assay results published in the NIST ThermoML archive (doi:10.1021/je050175u).
Several values for one entry are separate records, joined by “and”; a condition that tells them apart may be missing. Equal values may be shown once.

Test: excess molar enthalpy (molar enthalpy of mixing); xn = mol fraction of the nth substance listed
Settings: Liquid, Flow calorimetry

CC(C)CO [2-methyl-1-propanol] + COC(C)=O
Settings | excess molar enthalpy
298.15 K, 5000 kPa, x2 = 0.303 | 0.341 kcal/mol
298.15 K, 5000 kPa, x2 = 0.352 | 0.368 kcal/mol
298.15 K, 5000 kPa, x2 = 0.402 | 0.388 kcal/mol
298.15 K, 5000 kPa, x2 = 0.453 | 0.401 kcal/mol
298.15 K, 5000 kPa, x2 = 0.504 | 0.405 kcal/mol
298.15 K, 5000 kPa, x2 = 0.553 | 0.402 kcal/mol
298.15 K, 5000 kPa, x2 = 0.603 | 0.392 kcal/mol
298.15 K, 5000 kPa, x2 = 0.654 | 0.374 kcal/mol
298.15 K, 5000 kPa, x2 = 0.702 | 0.347 kcal/mol
298.15 K, 5000 kPa, x2 = 0.751 | 0.315 kcal/mol
298.15 K, 5000 kPa, x2 = 0.801 | 0.271 kcal/mol
298.15 K, 5000 kPa, x2 = 0.851 | 0.219 kcal/mol
298.15 K, 5000 kPa, x2 = 0.902 | 0.154 kcal/mol
298.15 K, 5000 kPa, x2 = 0.951 | 0.0827 kcal/mol
298.15 K, 10000 kPa, x2 = 0.049 | 0.0751 kcal/mol
298.15 K, 10000 kPa, x2 = 0.099 | 0.146 kcal/mol
298.15 K, 10000 kPa, x2 = 0.15 | 0.208 kcal/mol
298.15 K, 10000 kPa, x2 = 0.199 | 0.259 kcal/mol
298.15 K, 10000 kPa, x2 = 0.249 | 0.303 kcal/mol
298.15 K, 10000 kPa, x2 = 0.3 | 0.339 kcal/mol
298.15 K, 10000 kPa, x2 = 0.349 | 0.366 kcal/mol
298.15 K, 10000 kPa, x2 = 0.401 | 0.388 kcal/mol
298.15 K, 10000 kPa, x2 = 0.449 | 0.4 kcal/mol
298.15 K, 10000 kPa, x2 = 0.5 | 0.404 kcal/mol
298.15 K, 10000 kPa, x2 = 0.55 | 0.402 kcal/mol
298.15 K, 10000 kPa, x2 = 0.6 | 0.392 kcal/mol
298.15 K, 10000 kPa, x2 = 0.65 | 0.374 kcal/mol
298.15 K, 10000 kPa, x2 = 0.699 | 0.349 kcal/mol
298.15 K, 10000 kPa, x2 = 0.752 | 0.313 kcal/mol
298.15 K, 10000 kPa, x2 = 0.798 | 0.272 kcal/mol
298.15 K, 10000 kPa, x2 = 0.849 | 0.218 kcal/mol
298.15 K, 10000 kPa, x2 = 0.901 | 0.154 kcal/mol
298.15 K, 10000 kPa, x2 = 0.95 | 0.081 kcal/mol
308.15 K, 10000 kPa, x2 = 0.047 | 0.0714 kcal/mol
308.15 K, 10000 kPa, x2 = 0.098 | 0.148 kcal/mol
308.15 K, 10000 kPa, x2 = 0.146 | 0.213 kcal/mol
308.15 K, 10000 kPa, x2 = 0.193 | 0.266 kcal/mol
308.15 K, 10000 kPa, x2 = 0.243 | 0.314 kcal/mol
308.15 K, 10000 kPa, x2 = 0.291 | 0.352 kcal/mol
308.15 K, 10000 kPa, x2 = 0.343 | 0.383 kcal/mol
308.15 K, 10000 kPa, x2 = 0.39 | 0.404 kcal/mol
308.15 K, 10000 kPa, x2 = 0.492 | 0.426 kcal/mol and 0.423 kcal/mol
308.15 K, 10000 kPa, x2 = 0.541 | 0.424 kcal/mol
308.15 K, 10000 kPa, x2 = 0.591 | 0.415 kcal/mol
308.15 K, 10000 kPa, x2 = 0.641 | 0.398 kcal/mol
308.15 K, 10000 kPa, x2 = 0.692 | 0.371 kcal/mol
308.15 K, 10000 kPa, x2 = 0.744 | 0.335 kcal/mol
308.15 K, 10000 kPa, x2 = 0.794 | 0.291 kcal/mol
308.15 K, 10000 kPa, x2 = 0.896 | 0.168 kcal/mol
308.15 K, 10000 kPa, x2 = 0.947 | 0.0912 kcal/mol

COC(C)=O [methyl ethanoate] + CC(C)O
excess molar enthalpy [kcal/mol]
Settings | 5000 kPa | 10000 kPa
298.15 K, x1 = 0.1 | 0.133 | 0.132
298.15 K, x1 = 0.151 | 0.19 | 0.19
298.15 K, x1 = 0.199 | 0.235 | –
298.15 K, x1 = 0.201 | – | 0.238
298.15 K, x1 = 0.249 | 0.276 | –
298.15 K, x1 = 0.251 | – | 0.278
298.15 K, x1 = 0.299 | 0.308 | –
298.15 K, x1 = 0.301 | – | 0.31
298.15 K, x1 = 0.349 | 0.334 | –
298.15 K, x1 = 0.351 | – | 0.335
298.15 K, x1 = 0.4 | – | 0.354
298.15 K, x1 = 0.401 | 0.355 | –
298.15 K, x1 = 0.45 | 0.367 | 0.366
298.15 K, x1 = 0.499 | 0.374 | –
298.15 K, x1 = 0.501 | – | 0.372
298.15 K, x1 = 0.55 | 0.374 | 0.371
298.15 K, x1 = 0.599 | 0.367 | –
298.15 K, x1 = 0.601 | – | 0.363
298.15 K, x1 = 0.649 | 0.352 | –
298.15 K, x1 = 0.651 | – | 0.348
298.15 K, x1 = 0.699 | – | 0.327
298.15 K, x1 = 0.7 | 0.331 | –
298.15 K, x1 = 0.749 | – | 0.296
298.15 K, x1 = 0.75 | 0.3 | –
298.15 K, x1 = 0.799 | 0.262 | 0.258
298.15 K, x1 = 0.851 | 0.211 | 0.207
298.15 K, x1 = 0.9 | 0.154 | 0.15
298.15 K, x1 = 0.949 | 0.0855 | 0.081
308.15 K, x1 = 0.048 | – | 0.0745
308.15 K, x1 = 0.097 | – | 0.142
308.15 K, x1 = 0.145 | – | 0.199
308.15 K, x1 = 0.195 | – | 0.251
308.15 K, x1 = 0.243 | – | 0.293
308.15 K, x1 = 0.293 | – | 0.329
308.15 K, x1 = 0.342 | – | 0.357
308.15 K, x1 = 0.392 | – | 0.379
308.15 K, x1 = 0.441 | – | 0.393
308.15 K, x1 = 0.49 | – | 0.4
308.15 K, x1 = 0.541 | – | 0.4
308.15 K, x1 = 0.592 | – | 0.392
308.15 K, x1 = 0.643 | – | 0.376
308.15 K, x1 = 0.693 | – | 0.354
308.15 K, x1 = 0.743 | – | 0.324
308.15 K, x1 = 0.793 | – | 0.283
308.15 K, x1 = 0.897 | – | 0.169
308.15 K, x1 = 0.949 | – | 0.0908

COC(C)=O [methyl ethanoate] + CCCCCO
excess molar enthalpy [kcal/mol]
Settings | 298.15 K | 308.15 K
5000 kPa, x1 = 0.049 | 0.0821 | –
5000 kPa, x1 = 0.1 | 0.157 | –
5000 kPa, x1 = 0.15 | 0.22 | –
5000 kPa, x1 = 0.2 | 0.273 | –
5000 kPa, x1 = 0.249 | 0.314 | –
5000 kPa, x1 = 0.299 | 0.349 | –
5000 kPa, x1 = 0.349 | 0.375 | –
5000 kPa, x1 = 0.401 | 0.394 | –
5000 kPa, x1 = 0.451 | 0.404 | –
5000 kPa, x1 = 0.5 | 0.407 | –
5000 kPa, x1 = 0.55 | 0.403 | –
5000 kPa, x1 = 0.599 | 0.391 | –
5000 kPa, x1 = 0.65 | 0.371 | –
5000 kPa, x1 = 0.749 | 0.31 | –
5000 kPa, x1 = 0.801 | 0.264 | –
5000 kPa, x1 = 0.85 | 0.213 | –
5000 kPa, x1 = 0.901 | 0.15 | –
5000 kPa, x1 = 0.95 | 0.08 | –
10000 kPa, x1 = 0.049 | 0.0827 | –
10000 kPa, x1 = 0.051 | – | 0.0858
10000 kPa, x1 = 0.099 | 0.158 | 0.162
10000 kPa, x1 = 0.15 | 0.221 | 0.223
10000 kPa, x1 = 0.199 | 0.273 | 0.281
10000 kPa, x1 = 0.248 | 0.315 | –
10000 kPa, x1 = 0.251 | – | 0.325
10000 kPa, x1 = 0.299 | 0.35 | 0.361
10000 kPa, x1 = 0.348 | 0.375 | –
10000 kPa, x1 = 0.351 | – | 0.388
10000 kPa, x1 = 0.4 | 0.394 | 0.406
10000 kPa, x1 = 0.45 | 0.404 | 0.418
10000 kPa, x1 = 0.499 | 0.407 | 0.419
10000 kPa, x1 = 0.55 | 0.403 | 0.415
10000 kPa, x1 = 0.599 | 0.391 | 0.402
10000 kPa, x1 = 0.649 | 0.371 | 0.382
10000 kPa, x1 = 0.701 | – | 0.351
10000 kPa, x1 = 0.748 | 0.309 | –
10000 kPa, x1 = 0.752 | – | 0.316
10000 kPa, x1 = 0.8 | 0.263 | 0.272
10000 kPa, x1 = 0.85 | 0.21 | 0.22
10000 kPa, x1 = 0.901 | 0.146 | 0.152
10000 kPa, x1 = 0.95 | 0.0747 | 0.0782
